One assay has as its system B. Fragilis NCTC 9344. The assay is described as follows: Anti-anaerobic activity, strain C (microtitre plate MIC/MBC). The note with it: Bacteroides fragilis, NCTC9344, 48 h, strain C; for MIC: 48 hours, 37° C., anaerobic chamber, lowest concentration with no detectable growth, read-out: MIC; for MBC: less than 5 colonies (99.9% reduction in viable count) after 48 hours, read-out: MBC. The assay is classed as cell-based.

The subject of another assay is B. Fragilis ATCC 11295. Description: Anti-anaerobic activity, strain D (microtitre plate MIC/MBC). The class given is cell-based. To be noted: Bacteroides fragilis, ATCC11295, 48 h, strain D; for MIC: 48 hours, 37° C., anaerobic chamber, lowest concentration with no detectable growth; for MBC: less than 5 colonies (99.9% reduction in viable count) after 48 hours, read-out: MBC.

The test system of the next assay is B. Fragilis NCTC 9343. The assay is described as follows: Anti-anaerobic activity, strain B (microtitre plate MIC/MBC). The assay is classed as cell-based, Bacteroides fragilis. To be noted: Bacteroides fragilis, NCTC9343, 48 h, strain B; for MIC: 48 hours, 37° C., anaerobic chamber, lowest concentration with no detectable growth, read-out: MIC; for MBC: less than 5 colonies (99.9% reduction in viable count) after 48 hours, read-out: MBC.

In the next assay the test system is B. Fragilis WS-1. Description: Anti-anaerobic activity, strain E (microtitre plate MIC/MBC). The assay is classed as cell-based. The note with it: Bacteroides fragilis, 48 h, strain E; for MIC: 48 hours, 37° C., anaerobic chamber, lowest concentration with no detectable growth, read-out: MIC; for MBC: less than 5 colonies (99.9% reduction in viable count) after 48 hours, read-out: MBC.

Another assay has as its system B. Fragilis NCTC 10581. The assay is described as follows: Anti-anaerobic activity, strain A (microtitre plate MIC/MBC). The class given is cell-based, Bacteroides fragilis. To be noted: Bacteroides fragilis, NCTC10581, 48 h, strain A; for MBC: less than 5 colonies (99.9% reduction in viable count) after 48 hours, read-out: MBC; for MIC: 48 hours, 37° C., anaerobic chamber, lowest concentration with no detectable growth, read-out: MIC.

In brackets after ≈: the same amount, converted by molar mass. Counter-ions that a name gives are not always drawn.

With `Clc1ccccc1N1CCN=C1C(Cn1ccnc1)c1ccccc1` (stereo not drawn) [Example 1, 1-(2-Chlorophenyl)-4,5-dihydro-2[2-(imidazol-1-yl)-1-phenylethyl]imidazole], the MIC with B. Fragilis NCTC 9344 was determined as 6.2 µg/mL (≈ 17.7 µM); against B. Fragilis ATCC 11295, 6.2 µg/mL (≈ 17.7 µM); in the assay on B. Fragilis NCTC 9343, 12.5 µg/mL (≈ 35.6 µM); with B. Fragilis WS-1 it was 12.5 µg/mL (≈ 35.6 µM).
With `Brc1ccc(N2CCN=C2C(Cn2ccnc2)c2ccccc2)c(Br)c1` (stereo not drawn) [Example 2, 1-(2,4-Dibromophenyl)-4,5-dihydro-2-[2-imidazol-1-yl)-1-phenylethyl]imidazole dihydrochloride], the MBC in the assay on B. Fragilis NCTC 10581 is 3.1 µg/mL; with B. Fragilis NCTC 9344, 50 µg/mL; with B. Fragilis ATCC 11295 it was 12.5 µg/mL; in the assay with B. Fragilis NCTC 9343 it was 12.5 µg/mL; in the assay with B. Fragilis WS-1, 2.5 µg/mL. The MIC in the assay on B. Fragilis NCTC 9344 and with B. Fragilis ATCC 11295 was 1.5 µg/mL in each case.
As for `FC(F)(F)c1cccc(N2CCN=C2C(Cn2ccnc2)c2ccccc2)c1` (stereo not drawn) [Example 4, 4,5-Dihydro-2-[2-(imidazol-1-yl)-1-phenylethyl]-1-(3-trifluoromethylphenyl)imidazole hydrochloride], the MIC in the assay on B. Fragilis NCTC 10581 came out at 6.2 µg/mL; in the assay on B. Fragilis NCTC 9344, 12.5 µg/mL; with B. Fragilis ATCC 11295, 12.5 µg/mL; in the assay with B. Fragilis NCTC 9343, 12.5 µg/mL; in the assay on B. Fragilis WS-1, 12.5 µg/mL.
Regarding `Clc1ccc(CN2CCN=C2C(Cn2ccnc2)c2ccccc2)c(Cl)c1` (stereo not drawn) [Example 15, 1-(2,4-Dichlorophenylmethyl)-4,5-dihydro-2-[2-(imidazol-1-yl)-1-phenylethyl]imidazole], the MIC in the assay on B. Fragilis WS-1 stood at 6.2 µg/mL (≈ 15.5 µM).
`Clc1ccc(CN2CCN=C2C(Cn2cccn2)c2ccccc2)c(Cl)c1` (stereo not drawn) [Example 16, 1-(2,4-Dichlorophenylmethyl)-4,5-dihydro-2-[1-phenyl-2-(pyrazol-1-yl)ethyl]imidazole dihydrochloride]: the MIC in the assay on B. Fragilis WS-1 worked out at 100 µg/mL.
As to `Clc1ccc(CN2CCN=C2C(Cn2cncn2)c2ccccc2)c(Cl)c1` (stereo not drawn) [Example 17, 1-(2,4-Dichlorophenylmethyl)-4,5-dihydro-2-[1-phenyl-2-(1,2,4-triazol-1-yl)ethyl]imidazole dihydrochloride], the MIC in the assay with B. Fragilis NCTC 10581, in the assay on B. Fragilis NCTC 9344, against B. Fragilis ATCC 11295 and with B. Fragilis WS-1 was 50 µg/mL in each case.
For `c1ccc(CCCN2CCN=C2C(Cn2ccnc2)c2ccccc2)cc1` (stereo not drawn) [Example 18, 4,5-Dihydro-2-[2-(imidazol-1-yl)-1-phenylethyl]-1-(3-phenylpropyl)imidazoledihydrochloride], the MIC in the assay on B. Fragilis NCTC 10581 amounted to 25 µg/mL; in the assay with B. Fragilis NCTC 9344, 50 µg/mL; against B. Fragilis ATCC 11295 it was 25 µg/mL; with B. Fragilis NCTC 9343, 25 µg/mL; in the assay with B. Fragilis WS-1 it was 25 µg/mL.
In the case of `CCCCCCCCN1CCN=C1C(Cn1ccnc1)c1ccccc1` (stereo not drawn) [Example 19, 4,5-Dihydro-2-[2-(imidazol-1-yl)-1-phenylethyl]-1-n-octylimidazole dihydrochloride], the MIC in the assay on B. Fragilis NCTC 10581 worked out at 12.5 µg/mL; with B. Fragilis NCTC 9344 it was 12.5 µg/mL; in the assay on B. Fragilis ATCC 11295 it was 25 µg/mL; in the assay with B. Fragilis WS-1 it was 12.5 µg/mL. Further, the MBC with B. Fragilis NCTC 10581 turned out to be 25 µg/mL; in the assay on B. Fragilis NCTC 9344, 25 µg/mL; with B. Fragilis ATCC 11295, 100 µg/mL; in the assay with B. Fragilis NCTC 9343, 6.2 µg/mL; in the assay on B. Fragilis WS-1, 12.5 µg/mL.
Take `Clc1ccc(N2CCN=C2C(Cn2cncn2)c2ccccc2)c(Cl)c1` (stereo not drawn) [Example 20, 1-(2,4-Dichlorophenyl)-4,5-dihydro-2-[1-phenyl-2-(1,2,4-triazol-1-yl)ethyl]imidazole]: the minimum inhibitory concentration (MIC) in the assay on B. Fragilis NCTC 10581 worked out at 12.5 µg/mL (≈ 32.4 µM); in the assay with B. Fragilis NCTC 9344 it was 25 µg/mL (≈ 64.7 µM); in the assay on B. Fragilis ATCC 11295 it was 25 µg/mL (≈ 64.7 µM); in the assay with B. Fragilis NCTC 9343, 25 µg/mL (≈ 64.7 µM); with B. Fragilis WS-1, 25 µg/mL (≈ 64.7 µM).
For `Cc1nccn1CC(C1=NCCN1c1ccc(Cl)cc1Cl)c1ccccc1` (stereo not drawn) [Example 21, 1-(2,4-Dichlorophenyl)-4,5-dihydro-2-[2-(2-methylimidazol-1-yl)-1-phenylethyl]imidazole dihydrochloride], the minimal inhibitory concentration (MIC) amounted to 12.5 µg/mL with B. Fragilis NCTC 10581 and 1.5 µg/mL in the assay on B. Fragilis NCTC 9343. Moreover, the MBC with B. Fragilis NCTC 10581 came out at 12.5 µg/mL; in the assay on B. Fragilis NCTC 9344, 0.8 µg/mL; with B. Fragilis ATCC 11295, 0.8 µg/mL; in the assay with B. Fragilis NCTC 9343, 1.5 µg/mL; with B. Fragilis WS-1 it was 0.8 µg/mL.
For `CSc1nccn1CC(C1=NCCN1c1ccc(Cl)cc1Cl)c1ccccc1` (stereo not drawn) [Example 22, 1-(2,4-Dichlorophenyl)-4,5-dihydro-2-[1-phenyl-2-(2-thiomethylimidazol-1-yl)ethyl]imidazole dihydrochloride], the MIC with B. Fragilis NCTC 10581 worked out at 6.2 µg/mL; with B. Fragilis NCTC 9343 it was 1.5 µg/mL. In addition, the MBC amounted to 6.2 µg/mL in the assay on B. Fragilis NCTC 10581; 3.1 µg/mL in the assay on B. Fragilis NCTC 9344; 3.1 µg/mL in the assay on B. Fragilis ATCC 11295; 1.5 µg/mL in the assay with B. Fragilis NCTC 9343; 3.1 µg/mL with B. Fragilis WS-1.
As to `CC1=NCCN1CC(C1=NCCN1c1ccc(Cl)cc1Cl)c1ccccc1` (stereo not drawn) [Example 23, 1-(2,4-Dichlorophenyl)-4,5-dihydro-2-[2-(4,5-dihydro-2-methylimidazol-1-yl)-1-phenylethyl]imidazole dihydrochloride], the MIC with B. Fragilis NCTC 10581, in the assay on B. Fragilis NCTC 9344, in the assay with B. Fragilis ATCC 11295 and in the assay with B. Fragilis NCTC 9343 was 1.5 µg/mL throughout. Further, the MBC with B. Fragilis NCTC 10581 amounted to 1.5 µg/mL; in the assay with B. Fragilis NCTC 9344, 1.5 µg/mL; in the assay with B. Fragilis ATCC 11295 it was 1.5 µg/mL; in the assay with B. Fragilis NCTC 9343 it was 3.1 µg/mL; with B. Fragilis WS-1 it was 1.5 µg/mL.
In the case of `Cc1ccc(N2CCN=C2C(Cn2ccnc2)c2ccccc2)c(C)c1` (stereo not drawn) [Example 24, 4,5-Dihydro-1-(2,4-dimethylphenyl)-2-[2-(imidazol-1-yl)-1-phenylethyl]imidazole dihydrochloride], the MIC in the assay on B. Fragilis NCTC 10581 turned out to be 25 µg/mL; with B. Fragilis NCTC 9344 it was 12.5 µg/mL; with B. Fragilis ATCC 11295 it was 12.5 µg/mL; with B. Fragilis NCTC 9343, 12.5 µg/mL; in the assay with B. Fragilis WS-1, 25 µg/mL.
In the case of `CCCCCCN1CCN=C1C(Cn1ccnc1)c1ccccc1.Cl` (stereo not drawn) [Example 25, 4,5-Dihydro-1-n-hexyl-2-[2-(imidazol-1-yl)-1-phenylethyl]imidazole hydrochloride], the MIC with B. Fragilis NCTC 10581 worked out at 25 µg/mL; with B. Fragilis NCTC 9344 it was 100 µg/mL; with B. Fragilis ATCC 11295, 100 µg/mL; in the assay with B. Fragilis NCTC 9343, 100 µg/mL; with B. Fragilis WS-1, 100 µg/mL.
On to `CCCCCCCCCCN1CCN=C1C(Cn1ccnc1)c1ccccc1.Cl.Cl` (stereo not drawn) [Example 26, 1-n-Decyl-4,5-dihydro-2-[2-(imidazol-1-yl)-1-phenylethyl]imidazole dihydrochloride], for which the MIC in the assay with B. Fragilis NCTC 10581 was determined as 2.1 µg/mL. The MBC in the assay on B. Fragilis NCTC 10581 amounted to 3.1 µg/mL; with B. Fragilis NCTC 9344, 3.1 µg/mL; in the assay with B. Fragilis ATCC 11295, 50 µg/mL; with B. Fragilis WS-1, 3.1 µg/mL.
As for `Clc1ccc(N2CCN=C2C(CCn2ccnc2)c2ccccc2)c(Cl)c1` (stereo not drawn) [Example 27, 1-(2,4-Dichlorophenyl)-4,5-dihydro-2-[3-(imidazol-1-yl)-1-phenylpropyl]imidazole], the MIC with B. Fragilis NCTC 10581 is 100 µg/mL (≈ 250 µM); with B. Fragilis NCTC 9344, 100 µg/mL (≈ 250 µM); in the assay with B. Fragilis ATCC 11295, 100 µg/mL (≈ 250 µM); with B. Fragilis NCTC 9343, 100 µg/mL (≈ 250 µM); with B. Fragilis WS-1, 12.5 µg/mL (≈ 31.3 µM).

Source of the values: patent US4661602A, “Substituted alkyl imidazole derivatives” (G. D. Searle & Co., priority 1985, dated 1987).
